Test results as given in ChEMBL document CHEMBL5346901, “Discovery of potent Plasmodium falciparum protein kinase 6 (PfPK6) inhibitors with a type II inhibitor pharmacophore” (Eur J Med Chem, 2023).
The source made the active and inactive calls. The rule behind the calls is not given here.

test system: Plasmodium falciparum; assay: Antimalarial activity against blood stage Plasmodium falciparum 3D7 assessed as reduction in parasite growth incubated for 72 hrs by SYBR Green dye based fluorescence assay; assay type: functional, organism-based; conditions: not given

Q: `COc1cc2nccc(Oc3ccc(NC(=O)Nc4ccc(C(=O)N5CCN(C)CC5)c(C(F)(F)F)c4)c(F)c3)c2cc1OC` was tested. Which Activity did it give?
A: inactive

Q: Which Activity does the source give for `COc1cc2nccc(Oc3ccc(NC(=O)Nc4cc(C(F)(F)F)ccc4F)c(F)c3)c2cc1OC` here?
A: inactive

Q: Which Activity does the source give for `COc1cc2nccc(Oc3ccc(NC(=O)Nc4ccc(CN5CCOCC5)cc4)c(F)c3)c2cc1OC` here?
A: inactive

Q: How did the Activity turn out when `COc1cc2nccc(Oc3ccc(NC(=O)Nc4cccc(C(=O)N5CCN(C)CC5)c4)c(F)c3)c2cc1OC` was run?
A: inactive

Q: With `COc1cc2nccc(Oc3ccc(NC(=O)Nc4cc(C(=O)N5CCN(C)CC5)cc(C(F)(F)F)c4)c(F)c3)c2cc1OC` as the molecule, how does the Activity read?
A: inactive

Q: `COc1cc2nccc(Oc3ccc(NC(=O)Nc4cccc(OC(C)C)c4)c(F)c3)c2cc1OC` was tested. Which Activity did it give?
A: inactive

Q: `COc1cc2nccc(Oc3ccc(NC(=O)Nc4cccc(C#N)c4)c(F)c3)c2cc1OC` was tested. Which Activity did it give?
A: inactive

Q: For `COc1cc2nccc(Oc3ccc(NC(=O)Nc4cccc(OC(F)F)c4)c(F)c3)c2cc1OC`, which Activity is on record?
A: inactive

Q: With `COc1cccc(NC(=O)Nc2ccc(Oc3ccnc4cc(OC)c(OC)cc34)cc2F)c1` as the molecule, how does the Activity read?
A: inactive

Q: With `COc1cc2nccc(Oc3ccc(NC(=O)Nc4cccc(C(C)C)c4)c(F)c3)c2cc1OC` as the molecule, how does the Activity read?
A: inactive

Q: `COc1cc2nccc(Oc3ccc(NC(=O)Nc4ccc(C(=O)N5CCN(C)CC5)cc4)c(F)c3)c2cc1OC` was tested. Which Activity did it give?
A: inactive

Q: How did the Activity turn out when `COc1cc2nccc(Oc3ccc(NC(=O)Nc4cccc(CN5CCN(C)CC5)c4)c(F)c3)c2cc1OC` was run?
A: inactive

Q: `COc1cc2nccc(Oc3ccc(NC(=O)Nc4cccc(Br)c4)c(F)c3)c2cc1OC` was tested. Which Activity did it give?
A: inactive

same assay, conditions: 3D7, 72 h

Q: Which EC50 does the source give for `COc1cc2nccc(Oc3ccc(NC(=O)Nc4ccc(C=C5CCNCC5)c(C(F)(F)F)c4)c(F)c3)c2cc1OC` here?
A: 83 nM

Q: With `COc1cc2nccc(Oc3ccc(NC(=O)Nc4ccc(NC5CCN(C)CC5)cc4)c(F)c3)c2cc1OC` as the molecule, how does the EC50 read?
A: 660 nM

Q: `COc1cc2nccc(Oc3ccc(NC(=O)Nc4ccc(CN5CCCCC5)c(C(F)(F)F)c4)c(F)c3)c2cc1OC` was tested. Which EC50 did it give?
A: 490 nM

Q: Which EC50 does the source give for `COc1cc2nccc(Oc3ccc(NC(=O)Nc4ccc(CN5CCCC5)cc4)c(F)c3)c2cc1OC` here?
A: 270 nM

Q: For `CCN(CC)Cc1ccc(NC(=O)Nc2ccc(Oc3ccnc4cc(OC)c(OC)cc34)cc2F)cc1C(F)(F)F`, which EC50 is on record?
A: 300 nM

Q: With `COc1cc2nccc(Oc3ccc(NC(=O)Nc4cc(CN5CCN(C)CC5)cc(C(F)(F)F)c4)c(F)c3)c2cc1OC` as the molecule, how does the EC50 read?
A: 410 nM

Q: How did the EC50 turn out when `COc1cc2nccc(Oc3ccc(NC(=O)Nc4cccc(C(F)(F)F)c4)c(F)c3)c2cc1OC` was run?
A: 540 nM

Q: For `COc1cc2nccc(Oc3ccc(NC(=O)Nc4cccc(Cl)c4)c(F)c3)c2cc1OC`, which EC50 is on record?
A: 2190 nM

Q: `COc1cc2nccc(Oc3ccc(NC(=O)Nc4ccc(OC5CCN(C)CC5)cc4)c(F)c3)c2cc1OC` was tested. Which EC50 did it give?
A: 330 nM

Q: `COc1cc2nccc(Oc3ccc(NC(=O)Nc4ccc(OC5CCN(C)CC5)c(OC(F)(F)F)c4)c(F)c3)c2cc1OC` was tested. Which EC50 did it give?
A: 75 nM

Q: Which EC50 does the source give for `COc1cc2nccc(Oc3ccc(NC(=O)Nc4ccc(C=C5CCNCC5)c(OC(F)(F)F)c4)c(F)c3)c2cc1OC` here?
A: 84 nM

Q: For `COc1cc2nccc(Oc3ccc(NC(=O)Nc4cccc(C)c4)c(F)c3)c2cc1OC`, which EC50 is on record?
A: 3010 nM

Q: How did the EC50 turn out when `COc1cc2nccc(Oc3ccc(NC(=O)Nc4ccc(CN5CCCCC5)cc4)c(F)c3)c2cc1OC` was run?
A: 250 nM

Q: How did the EC50 turn out when `C[C@H]1[C@@H](O)O[C@@H]2O[C@@]3(C)CC[C@H]4[C@H](C)CC[C@@H]1[C@@]24OO3` [ARTENIMOL] was run?
A: 0.14 nM

Q: `COc1cc2nccc(Oc3ccc(NC(=O)Nc4ccc(CN5CCN(C)CC5)cc4)c(F)c3)c2cc1OC` was tested. Which EC50 did it give?
A: 580 nM

Q: How did the EC50 turn out when `CCN(CC)Cc1ccc(NC(=O)Nc2ccc(Oc3ccnc4cc(OC)c(OC)cc34)cc2F)cc1` was run?
A: 320 nM

Q: With `CCN(CC)CCCC(C)Nc1c2ccc(Cl)cc2nc2ccc(OC)cc12` (centres undefined) [QUINACRINE] as the molecule, how does the EC50 read?
A: 33 nM

Q: For `COc1cc2nccc(Oc3ccc(NC(=O)Nc4ccc(N(C)C5CCN(C)CC5)cc4)c(F)c3)c2cc1OC`, which EC50 is on record?
A: 330 nM

Q: `CCN(CC)Cc1ccc(NC(=O)Nc2ccc(Oc3ccnc4cc(OC)c(OC)cc34)cc2F)cc1OC(F)(F)F` was tested. Which EC50 did it give?
A: 270 nM

Q: For `CCc1nc(N)nc(N)c1-c1ccc(Cl)cc1` [PYRIMETHAMINE], which EC50 is on record?
A: 27 nM

Q: For `COc1cc2nccc(Oc3ccc(NC(=O)Nc4ccc(CC5CCNCC5)c(OC(F)(F)F)c4)c(F)c3)c2cc1OC`, which EC50 is on record?
A: 82 nM

Q: For `Nc1ncnc2occ(-c3ccc(NC(=O)Nc4cc(C(F)(F)F)ccc4F)cc3)c12` [GW770249X], which EC50 is on record?
A: 500 nM

Q: How did the EC50 turn out when `COc1cc2nccc(Oc3ccc(NC(=O)Nc4ccc(CN5CCCC5)c(C(F)(F)F)c4)c(F)c3)c2cc1OC` was run?
A: 330 nM

Q: How did the EC50 turn out when `COc1cc2nccc(Oc3ccc(NC(=O)Nc4ccc(N(C)C5CCN(C)CC5)c(C(F)(F)F)c4)c(F)c3)c2cc1OC` was run?
A: 150 nM

Q: Which EC50 does the source give for `COc1cc2nccc(Oc3ccc(NC(=O)Nc4ccc(CN5CCCCC5)c(OC(F)(F)F)c4)c(F)c3)c2cc1OC` here?
A: 310 nM

Q: `COc1cc2nccc(Oc3ccc(NC(=O)Nc4ccc(N(C)C5CCN(C)CC5)c(OC(F)(F)F)c4)c(F)c3)c2cc1OC` was tested. Which EC50 did it give?
A: 250 nM

Q: How did the EC50 turn out when `CN1CCN(C(=O)c2cccc(NC(=O)Nc3ccc(N(C)c4ccnc(Nc5ccc(CS(C)(=O)=O)cc5)n4)cc3)c2)CC1` was run?
A: 390 nM

Q: For `COc1cc2nccc(Oc3ccc(NC(=O)Nc4ccc(N5CCN(C)CC5)cc4)c(F)c3)c2cc1OC`, which EC50 is on record?
A: 630 nM

Q: For `COc1cc2nccc(Oc3ccc(NC(=O)Nc4cccc(OC(F)(F)F)c4)c(F)c3)c2cc1OC`, which EC50 is on record?
A: 800 nM

Q: `COc1cc2nccc(Oc3ccc(NC(=O)Nc4cccc(C(C)(C)C)c4)c(F)c3)c2cc1OC` was tested. Which EC50 did it give?
A: 2520 nM

Q: `COc1cc2nccc(Oc3ccc(NC(=O)Nc4ccc(CN5CCCC5)c(OC(F)(F)F)c4)c(F)c3)c2cc1OC` was tested. Which EC50 did it give?
A: 230 nM

Q: How did the EC50 turn out when `COc1cc2nccc(Oc3cc(C(=O)Nc4ccc(CN5CCN(C)CC5)c(C(F)(F)F)c4)ccc3C)c2cc1OC` was run?
A: 410 nM

target: T1, Cdk-related protein kinase 6 (Plasmodium falciparum) (UniProt O77239); assay: Inhibition of plasmodium falciparum PK6 assessed as remaining activity at 1 uM incubated for 2 hrs by luciferin-based luminescence assay relative to control; conditions: not given
T1 sequence (whole entry): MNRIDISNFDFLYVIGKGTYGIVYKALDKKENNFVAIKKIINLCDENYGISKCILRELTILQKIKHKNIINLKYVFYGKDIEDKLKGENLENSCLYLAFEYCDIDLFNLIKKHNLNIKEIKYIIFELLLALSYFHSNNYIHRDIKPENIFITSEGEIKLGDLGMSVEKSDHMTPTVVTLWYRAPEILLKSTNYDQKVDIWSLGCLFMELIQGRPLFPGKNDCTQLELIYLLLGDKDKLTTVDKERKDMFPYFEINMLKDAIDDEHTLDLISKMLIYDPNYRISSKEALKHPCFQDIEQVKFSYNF

Q: With `COc1cc2nccc(Oc3ccc(N)c(F)c3)c2cc1OC` as the molecule, how does the Activity read?
A: 100%

Q: With `COc1cc2nccc(Oc3ccc(NC(=O)Nc4ccc(F)cc4F)cc3)c2cc1OC` as the molecule, how does the Activity read?
A: 6%

Q: How did the Activity turn out when `O=C(Nc1ccc(F)cc1F)Nc1ccc(Oc2ccnc3ccsc23)cc1F` was run?
A: 34%

Q: Which Activity does the source give for `COc1ccc2nccc(Oc3ccc(NC(=O)Nc4ccc(F)cc4F)c(F)c3)c2c1` here?
A: 24%

Q: `O=C(Nc1ccc(F)cc1F)Nc1ccc(Oc2cc(NCc3ccccc3)ncn2)cc1F` was tested. Which Activity did it give?
A: 60%

Q: Which Activity does the source give for `COc1cc2nccc(Oc3ccc(NC(C)=O)c(F)c3)c2cc1OC` here?
A: 26%

Q: `O=C(Nc1ccc(F)cc1F)Nc1ccc(Oc2cc(Cl)ncn2)cc1F` was tested. Which Activity did it give?
A: 96%

Q: How did the Activity turn out when `N#Cc1cnc2ccccc2c1Oc1ccc(NC(=O)Nc2ccc(F)cc2F)c(F)c1` was run?
A: 86%

Q: For `COc1cc2nccc(Oc3ccc(NC(=O)Nc4ccc(F)cc4)c(F)c3)c2cc1OC`, which Activity is on record?
A: 1%

Q: For `O=C(Nc1ccc(F)cc1F)Nc1ccc(Oc2ncnc3ccccc23)cc1F`, which Activity is on record?
A: 83%

Q: `O=C(Nc1ccc(F)cc1F)Nc1ccc(Oc2ncnc3sccc23)cc1F` was tested. Which Activity did it give?
A: 80%

Q: `O=C(Nc1ccc(F)cc1F)Nc1ccc(Oc2ccnc3cc(Cl)ccc23)cc1F` was tested. Which Activity did it give?
A: 38%

Q: Which Activity does the source give for `O=C(Nc1ccc(F)cc1F)Nc1ccc(Oc2ccnc3cc4c(cc23)OCO4)cc1F` here?
A: 28%

Q: `COc1cc2nccc(Oc3ccc(NC(N)=O)c(F)c3)c2cc1OC` was tested. Which Activity did it give?
A: 28%

Q: For `COc1cc2nccc(Oc3cccc(F)c3)c2cc1OC`, which Activity is on record?
A: 84%

Q: How did the Activity turn out when `O=C(Nc1ccc(F)cc1F)Nc1ccc(Oc2cnnc3ccccc23)cc1F` was run?
A: 100%

Q: `O=C(Nc1ccc(F)cc1F)Nc1ccc(Oc2ccnc(Cl)c2)cc1F` was tested. Which Activity did it give?
A: 92%

Q: For `COc1ccc2c(Oc3ccc(NC(=O)Nc4ccc(F)cc4F)c(F)c3)ccnc2c1`, which Activity is on record?
A: 11%

Q: With `O=C(Nc1ccc(F)cc1F)Nc1ccc(Oc2ccnc3ccccc23)cc1F` as the molecule, how does the Activity read?
A: 40%
